Columns and labels:
Homo sapiens = organism: Homo sapiens; test: Selectivity ratio of IC50 for human alpha4beta2 nAChR to IC50 for human alpha7 nAChR
[1] = target: T1, Neuronal acetylcholine receptor subunit alpha-7 (Homo sapiens, UniProt P36544); test: Antagonist activity at human alpha7 nAChR expressed in rat GH3 cells assessed as (+/-)-epibatidine-induced Ca2+ influx; type: cell-based
[2] = target: T2, Neuronal acetylcholine receptor; alpha4/beta2 (Homo sapiens, UniProt P17787+P43681); test: Antagonist activity at human alpha4beta2 nAChR expressed in HEK293 cells assessed as (+/-)-epibatidine-induced Ca2+ influx; type: cell-based
[3] = target: T2, Neuronal acetylcholine receptor; alpha4/beta2; test: Displacement of [3H]imipramine from human alpha4beta2 nAChR; type: protein-complex assay
[4] = target: T2, Neuronal acetylcholine receptor; alpha4/beta2; test: Displacement of [3H]cytisine from human alpha4beta2 nAChR; type: protein-complex assay
[5] = target: T1, Neuronal acetylcholine receptor subunit alpha-7; test: Displacement of [3H]imipramine from human alpha7 nAChR
[6] = target: T1, Neuronal acetylcholine receptor subunit alpha-7; test: Displacement of [3H]MLA from human alpha7 nAChR

T1 sequence (P36544 whole entry): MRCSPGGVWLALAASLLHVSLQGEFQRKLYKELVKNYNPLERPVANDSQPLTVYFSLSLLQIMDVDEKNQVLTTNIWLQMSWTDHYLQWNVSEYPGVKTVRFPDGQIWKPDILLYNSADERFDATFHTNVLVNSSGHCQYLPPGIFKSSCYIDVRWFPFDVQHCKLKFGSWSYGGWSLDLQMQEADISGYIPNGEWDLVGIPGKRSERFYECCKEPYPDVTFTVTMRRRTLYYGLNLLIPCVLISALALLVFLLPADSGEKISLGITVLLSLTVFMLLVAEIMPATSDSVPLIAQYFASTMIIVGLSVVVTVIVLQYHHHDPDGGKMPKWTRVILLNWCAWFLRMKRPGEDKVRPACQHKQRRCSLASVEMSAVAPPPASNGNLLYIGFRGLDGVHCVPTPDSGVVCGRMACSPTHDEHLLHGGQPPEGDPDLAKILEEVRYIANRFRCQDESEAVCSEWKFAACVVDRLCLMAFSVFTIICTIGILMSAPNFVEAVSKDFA
T2 sequence (P17787 whole entry): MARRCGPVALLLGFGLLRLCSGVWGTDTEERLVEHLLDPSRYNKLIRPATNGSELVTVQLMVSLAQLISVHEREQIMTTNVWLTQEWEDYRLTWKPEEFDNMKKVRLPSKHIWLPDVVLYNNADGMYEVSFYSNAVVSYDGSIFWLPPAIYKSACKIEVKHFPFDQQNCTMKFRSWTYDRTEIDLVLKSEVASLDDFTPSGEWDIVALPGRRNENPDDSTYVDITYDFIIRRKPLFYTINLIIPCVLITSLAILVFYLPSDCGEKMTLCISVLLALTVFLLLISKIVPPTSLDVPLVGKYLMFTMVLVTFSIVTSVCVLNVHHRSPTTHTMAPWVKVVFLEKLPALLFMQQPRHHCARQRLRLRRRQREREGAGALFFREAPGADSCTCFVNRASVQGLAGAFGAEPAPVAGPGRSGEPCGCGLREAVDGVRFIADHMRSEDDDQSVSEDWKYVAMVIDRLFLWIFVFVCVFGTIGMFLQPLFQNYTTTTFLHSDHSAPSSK
T2 sequence (P43681 whole entry): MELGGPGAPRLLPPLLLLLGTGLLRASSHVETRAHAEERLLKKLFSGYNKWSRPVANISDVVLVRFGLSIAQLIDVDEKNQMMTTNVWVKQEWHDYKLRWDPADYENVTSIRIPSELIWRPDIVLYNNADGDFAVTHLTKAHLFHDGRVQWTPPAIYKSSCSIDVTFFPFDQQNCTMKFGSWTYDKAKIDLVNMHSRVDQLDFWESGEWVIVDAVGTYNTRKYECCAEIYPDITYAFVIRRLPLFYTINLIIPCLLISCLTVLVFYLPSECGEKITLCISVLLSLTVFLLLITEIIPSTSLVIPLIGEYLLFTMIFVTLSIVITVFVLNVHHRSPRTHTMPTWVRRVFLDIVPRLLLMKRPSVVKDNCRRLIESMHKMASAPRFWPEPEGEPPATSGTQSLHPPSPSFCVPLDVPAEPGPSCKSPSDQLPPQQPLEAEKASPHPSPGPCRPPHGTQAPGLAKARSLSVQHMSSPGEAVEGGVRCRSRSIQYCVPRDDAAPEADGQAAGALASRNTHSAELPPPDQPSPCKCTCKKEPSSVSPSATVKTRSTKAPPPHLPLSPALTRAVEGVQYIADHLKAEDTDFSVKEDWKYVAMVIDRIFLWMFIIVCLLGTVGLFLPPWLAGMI

Compound | Ratio IC50 (Homo sapiens) | IC50 [1] | IC50 [2] | Ki [3] | Ki [4] | Ki [5] | Ki [6]
COc1ccc(Cn2cc(C[N+](C)(C)C)c3ccccc32)cc1 | 2.2 | 2 µM | 4.4 µM | – | – | – | –
C[N+](C)(C)Cc1cn(Cc2ccc3c(c2)OCO3)c2ccccc12 | 3 | 1.3 µM | 3.9 µM | – | – | – | –
C[N+](C)(C)Cc1cn(Cc2cccc(O)c2)c2ccccc12 | 14.7 | 1 µM | 14.7 µM | 112 µM | 1.6 µM | 145 µM | 0.6 µM
C[n+]1cccc(Cn2cc(C[N+](C)(C)C)c3ccccc32)c1 | – | 41.3 µM | > 100 µM | – | – | – | –
C[N+](C)(C)Cc1cn(Cc2ccccc2)c2ccccc12 | 1.9 | 2.3 µM | 4.2 µM | – | – | – | –

Continued, in another order:

Ratio IC50 (Homo sapiens) | Compound | IC50 [1] | IC50 [2] | Ki [3] | Ki [4] | Ki [5] | Ki [6]
11.3 | C[N+](C)(C)Cc1cn(Cc2ccc(O)cc2)c2ccccc12 | 2.2 µM | 24.9 µM | – | 0.6 µM | – | 2.9 µM
4.1 | COc1cc(Cn2cc(C[N+](C)(C)C)c3ccccc32)ccc1O | 2.2 µM | 9.1 µM | – | – | – | –
2.8 | COc1ccc(Cn2cc(C[N+](C)(C)C)c3ccccc32)cc1O | 3.4 µM | 9.5 µM | – | – | – | –
7.4 | C[N+](C)(C)Cc1cn(Cc2ccc([N+](C)(C)C)cc2)c2ccccc12 | 2.7 µM | 20 µM | – | – | – | –
6.7 | COc1ccc(Cn2cc(C[N+](C)(C)C)c3ccccc32)cc1OC | 2.2 µM | 14.8 µM | – | – | – | –
